Assay results from patent EP0923292B1, “IMPROVED METHOD FOR SYSTEMIC ADMINISTRATION OF 2,4-DIENOIC ACID-TYPE INSECTICIDES TO TERRESTRIAL MAMMALS” (priority 1996, dated 1998).

What was measured:
[1] = Concentration of (S)-methoprene in dog blood following oral administration (HPLC); assay type: in vivo, dogs; conditions: random-bred, whole blood, 50 mg/kg
Source text: Twelve random-bred adult dogs of various sex and medium hair coat were selected based on hair coat, health, and individual habits. The twelve dogs were grouped into two groups of six dogs each. Dog weights ranged from 22.5 kg to 35.0 kg, and the various weights and each sex were represented in each group. The dogs received a measured amount of Science Diet maintenance dog food daily and water was available. The two groups of dogs were housed separately. The dogs of Group 1 were not given any treatments, whereas those of Group 2 were each given 50 mg/kg of technical (S)-methoprene one time only at the start of the study (Day 0).
Blood samples were taken periodically by drawing the samples into 10 cc disposable syringes and transferring them to labeled 5 mL heparinized EDTA vacutainers treated with […] of paraoxon solution at a concentration of 1 x 10^-2 M. The blood samples were frozen until ready for analysis. Hair samples were clipped from the dogs on the same days that blood samples were taken, then placed in labeled freezer jars with aluminum foil seals, and frozen.
To analyze the blood samples, the samples were extracted three times with methyl t-butyl ether, evaporated, reconstituted in 1 mL of methanol, and analyzed by HPLC as in the hair analyses.

[2] = test system: C. felis; test: Systemic flea ovicidal activity upon oral administration to host dogs (Example 2); assay type: in vivo, C. felis (host: dogs); conditions: for Percent Inhibition of Flea Egg Hatching: relative to placebo
Source text: Nine random-bred, clinically healthy dogs, five male and four female, ranging in weight from 7.5 to 14.9 kg and in age from 7 months to 68 months, and having hair coats ranging from fine to coarse and from 1.0 to 2.5 cm in length, were used. The dogs were assigned to three treatment groups based on weight, one group designated to receive a placebo (gelatin capsules containing no (S)-methoprene), the second group to receive gelatin capsules individually prepared to contain the appropriate quantity of (S)-methoprene such that one capsule would provide 25.0 mg (S)-methoprene per kg of the body weight of a particular dog, and the third group to receive gelatin capsules individually prepared to provide 50.0 mg/kg of body weight per dog. […]
Eleven days before the administration of the first gelatin capsule (i.e., on Day -11), and weekly thereafter through Day 59, each dog was infested with approximately 200 one-to two-week-old, unfed adult C. fells fleas of mixed sex ratio. Each dog was restrained for about one minute while the fleas were released along the dorsum.
[…] Prior to egg collection, the cages in which the dogs were housed and the collection trays were rinsed with isopropyl alcohol, and the water was turned off, feed bowls and resting pads were removed from each cage. Trays covered with a screen made of […] hardware cloth were placed under the cages, and heavy white butcher paper was placed under the hardware cloth. After an interval of 14-16 hours, the paper was swept and the debris and flea eggs thus collected were transferred to a metal pan. The debris was separated from the eggs by sieving, and the eggs were placed in half-pint plastic cartons, then transferred to 10 cm x 10 cm glass plates. Using a dissecting microscope and a fine tipped artist brush, 100 flea eggs were counted from the sweepings of each dog and separated into four replicates of 25 eggs each. The eggs were placed in a 15 mm x 60 mm disposable plastic petri dish and incubated at 79-80°F and 80% relative humidity. Seventy two hours after collection, larvae emergence was determined. Both dead and live larvae were counted to determine the ovicidal effect of the treatment.
The results are listed in Table II below, where each entry represents the percent inhibition of hatching of fleas from the flea eggs relative to the placebo group, and each entry is the average of all replicates and of all three dogs in the particular treatment group.

Structure (SMILES): COC(C)(C)CCC[C@H](C)C/C=C/C(C)=C/C(=O)OC(C)C [(S)-Methoprene, 1-isopropyl (E,E)-11-methoxy-3,7,11-trimethyl dodecadi-2,4-enoate]
- concentration at 1 day ([1]; Dog #60, oral 50 mg/kg one time on Day 0, day 1): 117 ng/g
- concentration at 3 day ([1]; Dog #60, oral 50 mg/kg one time on Day 0, day 3): 36 ng/g
- concentration at 1 day ([1]; Dog #98, oral 50 mg/kg one time on Day 0, day 1): 97.2 ng/g
- concentration at 1 day ([1]; Dog #528, oral 50 mg/kg one time on Day 0, day 1): 165 ng/g
- concentration at 3 day ([1]; Dog #528, oral 50 mg/kg one time on Day 0, day 3): 63.6 ng/g
- concentration at 1 day ([1]; Dog #529, oral 50 mg/kg one time on Day 0, day 1): 172 ng/g
- concentration at 3 day ([1]; Dog #529, oral 50 mg/kg one time on Day 0, day 3): 52.1 ng/g
- concentration at 7 day ([1]; Dog #529, oral 50 mg/kg one time on Day 0, day 7): 55.7 ng/g
- concentration at 1 day ([1]; Dog #534, oral 50 mg/kg one time on Day 0, day 1): 146 ng/g
- concentration at 3 day ([1]; Dog #534, oral 50 mg/kg one time on Day 0, day 3): 94.2 ng/g
- concentration at 5 day ([1]; Dog #534, oral 50 mg/kg one time on Day 0, day 5): 66.8 ng/g
- concentration at 1 day ([1]; Dog #535, oral 50 mg/kg one time on Day 0, day 1): 239 ng/g
- concentration at 3 day ([1]; Dog #535, oral 50 mg/kg one time on Day 0, day 3): 93.3 ng/g
- concentration at 5 day ([1]; Dog #535, oral 50 mg/kg one time on Day 0, day 5): 47.7 ng/g
- duration of ovicidal efficacy ([2]; administered systemically to host dogs at 50 mg/kg and 25 mg/kg): two weeks or more
- time effective in controlling fleas ([2]; following a single oral dose of 50 mg/kg to dogs): 14 days
- Percent Inhibition of Flea Egg Hatching ([2]; oral 25 mg/kg once on Day 0 and once on Day 33, 1 day after initial administration): 92.3%
- Percent Inhibition of Flea Egg Hatching ([2]; oral 25 mg/kg once on Day 0 and once on Day 33, 2 days after initial administration): 80.4%
- Percent Inhibition of Flea Egg Hatching ([2]; oral 25 mg/kg once on Day 0 and once on Day 33, 4 days after initial administration): 100.0%
- Percent Inhibition of Flea Egg Hatching ([2]; oral 25 mg/kg once on Day 0 and once on Day 33, 7 days after initial administration): 44.4%
- Percent Inhibition of Flea Egg Hatching ([2]; oral 25 mg/kg once on Day 0 and once on Day 33, 14 days after initial administration): 75.1%
- Percent Inhibition of Flea Egg Hatching ([2]; oral 25 mg/kg once on Day 0 and once on Day 33, 21 days after initial administration): 79.0%
- Percent Inhibition of Flea Egg Hatching ([2]; oral 25 mg/kg once on Day 0 and once on Day 33, 28 days after initial administration): 39.9%
- Percent Inhibition of Flea Egg Hatching ([2]; oral 25 mg/kg once on Day 0 and once on Day 33, 35 days after initial administration): 100.0%
- Percent Inhibition of Flea Egg Hatching ([2]; oral 25 mg/kg once on Day 0 and once on Day 33, 42 days after initial administration): 95.9%
- Percent Inhibition of Flea Egg Hatching ([2]; oral 25 mg/kg once on Day 0 and once on Day 33, 49 days after initial administration): 11.3%
- Percent Inhibition of Flea Egg Hatching ([2]; oral 25 mg/kg once on Day 0 and once on Day 33, 55 days after initial administration): 12.6%
- Percent Inhibition of Flea Egg Hatching ([2]; oral 25 mg/kg once on Day 0 and once on Day 33, 63 days after initial administration): 14.0%
- Percent Inhibition of Flea Egg Hatching ([2]; oral 50 mg/kg once on Day 0 and once on Day 33, 1 day after initial administration): 98.9%
- Percent Inhibition of Flea Egg Hatching ([2]; oral 50 mg/kg once on Day 0 and once on Day 33, 2 days after initial administration): 100.0%
- Percent Inhibition of Flea Egg Hatching ([2]; oral 50 mg/kg once on Day 0 and once on Day 33, 4 days after initial administration): 100.0%
- Percent Inhibition of Flea Egg Hatching ([2]; oral 50 mg/kg once on Day 0 and once on Day 33, 7 days after initial administration): 97.5%
- Percent Inhibition of Flea Egg Hatching ([2]; oral 50 mg/kg once on Day 0 and once on Day 33, 14 days after initial administration): 97.9%
- Percent Inhibition of Flea Egg Hatching ([2]; oral 50 mg/kg once on Day 0 and once on Day 33, 21 days after initial administration): 73.0%
- Percent Inhibition of Flea Egg Hatching ([2]; oral 50 mg/kg once on Day 0 and once on Day 33, 28 days after initial administration): 50.8%
- Percent Inhibition of Flea Egg Hatching ([2]; oral 50 mg/kg once on Day 0 and once on Day 33, 35 days after initial administration): 100.0%
- Percent Inhibition of Flea Egg Hatching ([2]; oral 50 mg/kg once on Day 0 and once on Day 33, 42 days after initial administration): 100.0%
- Percent Inhibition of Flea Egg Hatching ([2]; oral 50 mg/kg once on Day 0 and once on Day 33, 49 days after initial administration): 51.5%
- Percent Inhibition of Flea Egg Hatching ([2]; oral 50 mg/kg once on Day 0 and once on Day 33, 55 days after initial administration): 31.9%
- Percent Inhibition of Flea Egg Hatching ([2]; oral 50 mg/kg once on Day 0 and once on Day 33, 63 days after initial administration): 16.1%
